Where two headings read alike, the source gives them in different places.
Tests used:
Type in all cases: in vivo
[1] = test system: male Royal Hart mice (rotarod time); test: Test A (Rotarod Test), muscle relaxant; conditions: for ED50: Mus musculus, tested 30 and 60 minutes after administration, read-out: ED50 (dose which decreases the rotarod time by 50%); for percent change in rotarod time: 200 mg./kg. p.o., vs control
Description: (§1) The compounds of Formula I and the pharmaceutically acceptable acid addition salts thereof are useful for the treatment of inflammation in animals (e.g., mammals) as indicated by Test E and, with the exception of those wherein R2 is 4-NR5 R6 and R3 and R4 are hydrogen, as muscle relaxants in animals (e.g., mammals) as indicated by Tests A, B, C and D. The preferred compounds of Formula I and pharmaceutically acceptable acid addition salts set forth above are those that are preferred for muscle relaxation.
Test A (Rotarod Test): A modification of the rotarod method of Dunham et al., J. Am. Pharm. Assoc. 46, 208 (1957), is used. Groups of 5 male Royal Hart mice weighing 20-25 g. are trained to ride a rod revolving at 15 r.p.m. covered with corrugated paper for 60-90 seconds. Ability of the mice to remain on the rod is tested again at 30 minutes and 60 minutes after intraperitoneal or oral administration of the drug (the compound of Formula I in free base or pharmaceutically acceptable acid addition salt form) at a dose of 20-400 mg./kg. body weight or saline. Rotarod times for control and treated groups are compared to determine the percent change. The ED50 is the dose of the drug which decreases the rotarod time by 50% or is calculated by interpolation.

[2] = test system: linguomandibular reflex; test: Test D (Linguomandibular Reflex (LMR)), muscle relaxant; conditions: Felis catus, iv, cats, alpha chloralose anesthesia; read-out: ED50 (dose that reduces the response by 50%)
Description: as §1
Test D (Linguomandibular Reflex (LMR)): The linguomandibular reflex is a polysynaptic reflex involving interneurons within the brain stem. Inhibition of the linguomandibular reflex has been correlated with central muscle relaxant activity. See Bhargava et al., Brit. J. Pharmacol. 25, 74-80 (1965).
Male cats weighing 2.0-3.0 kg. are utilized to study the effect of a drug on the linguomandibular reflex. […]
The head of the cat is rigidly fixed in a Kopf stereotaxic u-frame assembly allowing the lower jaw (mandible) to move freely. The movement of the lower jaw is recorded through a system of surgical thread, pulleys and a ft. […]
After consistent linguomandibular responses are obtained, the test drug (compound of Formula I in free base or pharmaceutically acceptable acid addition salt form) is administered intravenously at a dose of 2-50 mg./kg. body weight and its effect is recorded. […]

[3] = test system: mono (patellar)--and poly (flexor)--synaptic gross spinal reflexes; test: Test B (Gross Spinal Reflex), muscle relaxant; conditions: Felis catus, iv, cats, alpha chloralose anesthesia, progressively accumulating doses; read-out: ED50 (dose that reduces the response by 50%)
Description: as §1
Test B (Gross Spinal Reflex): Male cats weighing 2.5-3.0 kg. are utilized to study the effects of drugs on the mono (patellar)--and poly (flexor)--synaptic gross spinal reflexes. A Grass Model 7 polygraph with two ft. 03 force displacement transducers and two low level D.C. pre-amplifiers is utilized to measure the flexor and patellar responses.
Anesthesia is induced with ether, followed by an i.v. injection of alpha chloralose dissolved in warm distilled water at a dose of 70 mg./kg. body weight. […]
A drill bit pin is inserted just behind the lateral epicondyle of the left femur. […] Contraction of the left leg is measured via a force displacement transducer. […]
A series of control responses is recorded prior to administration of the drug (compound of Formula I in free base or pharmaceutically acceptable acid addition salt form). […]

[4] = test system: carrageenan-induced edema; test: Test E (Acute Carrageenan-Induced Edema), anti-inflammatory; conditions: Rattus norvegicus, po, 3 h; p.o., rats, one hour prior to carrageenan; edema measured three hours after carrageenan
Description: as §1
Test E (Acute Carrageenan-Induced Edema): Rats are orally dosed (10-200 mg./kg. body weight) with the test drug (compound of Formula I in free base or pharmaceutically acceptable acid addition salt form) one hour prior to administration of carrageenan; edema is measured three hours subsequent to the carrageenan administration. See Winter, Proc. Soc. Exp. Biol. 111, 544 (1962).

## Cc1ccccc1-c1cc2ncccc2c(=O)n1C [Example 6, 6-Methyl-7-(2'-methylphenyl)-1,6-naphthyridine-5-(6H)-one]
[1]; ip
  ED50: 36.8 mg/kg
[1]; po
  ED50: 43.5 mg/kg

## Cn1c(-c2ccc(Cl)cc2)cc2ncccc2c1=O [Example 11, 7-(4'-Chlorophenyl)-6-methyl-1,6-naphthyridine-5-(6H)-one]
[1]
  percent change in rotarod time: 32%
[1]; ip
  ED50: 134 mg/kg

## Cn1c(-c2ccccc2Cl)cc2ncccc2c1=O [Example 4, 7-(2'-Chlorophenyl)-6-methyl-1,6-naphthyridine-5(6H)-one]
[2]
  ED50: 4.6 mg/kg
[3]
  ED50: 1.6 mg/kg
[4]
  ED50: 29 mg/kg
[1]; ip
  ED50: 49.3 mg/kg
[1]; po
  ED50: 39.1 mg/kg

## CN(C)c1cccc(-c2cc3ncccc3c(=O)n2C)c1 [Example 8, 7-(3'-Dimethylaminophenyl)-6-methyl-1,6-naphthyridine-5(6H)-one]
[1]
  percent change in rotarod time: 47.3%
[1]; ip
  ED50: 141 mg/kg
